PubChem BioAssay (NCI)
Values joined by “and” are separate entries in the source; they are usually repeats but may differ in a detail not shown here. Equal entries are not always repeated.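 Dose response: 5 concentrations. Exposure: 48 h. Format: 96-well plates. Endpoint: linear interpolation; highest concentration if not reached. GI50: concentration for 50% inhibition of growth. TGI: concentration producing complete growth inhibition.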

Tests used:
Experiment in all cases: DTP human tumour cell line panel, 48 h
MOLT-4 leukemia = tested on: MOLT-4 leukemia
A498 renal = tested on: A498 renal
SNB-19 CNS = tested on: SNB-19 CNS
LOX IMVI melanoma = tested on: LOX IMVI melanoma
OVCAR-3 ovarian = tested on: OVCAR-3 ovarian
SK-OV-3 ovarian = tested on: SK-OV-3 ovarian
M14 melanoma = tested on: M14 melanoma
TK-10 renal = tested on: TK-10 renal
PC-3 prostate = tested on: PC-3 prostate
HCC-2998 colon = tested on: HCC-2998 colon

Compound | GI50 (MOLT-4 leukemia) | TGI (MOLT-4 leukemia) | GI50 (A498 renal) | TGI (A498 renal) | GI50 (SNB-19 CNS) | TGI (SNB-19 CNS) | GI50 (LOX IMVI melanoma) | TGI (LOX IMVI melanoma) | GI50 (OVCAR-3 ovarian) | TGI (OVCAR-3 ovarian) | GI50 (SK-OV-3 ovarian) | TGI (SK-OV-3 ovarian) | GI50 (M14 melanoma) | TGI (M14 melanoma) | GI50 (TK-10 renal) | TGI (TK-10 renal) | GI50 (PC-3 prostate) | TGI (PC-3 prostate) | GI50 (HCC-2998 colon) | TGI (HCC-2998 colon)
Oc1cccc(-c2nc(-c3ccccc3)[nH]c2-c2ccncc2)c1 | 24.9 µM | > 25 µM | 6.07 µM | 17.4 µM | > 25 µM | > 25 µM | 8.82 µM | > 25 µM | 18.6 µM | > 25 µM | 9.29 µM | > 25 µM | 1.71 µM | 12.6 µM | 16.5 µM | > 25 µM | > 20.8 µM | > 25 µM | 11.7 µM | > 25 µM
COC1=CC2CCN3Cc4cc5c(cc4C(C1O)C23)OCC5 (stereo not given) | 2.11 µM | > 100 µM | 17.7 µM | 98.8 µM | 0.992 µM | > 24.5 µM | 0.587 µM | 3.18 µM | 1.78 µM | 5.62 µM | 1.84 µM | > 100 µM | 3 µM | 19.3 µM | 5.53 µM | 41.9 µM | 2.67 µM | > 47 µM | 1.09 µM | 7.37 µM
Cc1cc2c(cc1Cl)SC(C(=O)c1ccc(Cl)c(Cl)c1)NS2(=O)=O (stereo not given) | 29.5 µM | 64.4 µM | 70.5 µM | > 100 µM | 35 µM | > 100 µM | 22.6 µM | 48.7 µM | 40.7 µM | > 100 µM | 33.7 µM | 91.4 µM | 43.9 µM | > 100 µM | 84.7 µM | > 100 µM | 32.5 µM | > 100 µM | 19.8 µM | 35.1 µM
O=C1NC(=O)C(c2c[nH]c3ccccc23)=C1c1ccccc1 | > 25 µM | > 25 µM | > 17.6 µM | > 25 µM | > 25 µM | > 25 µM | 23.3 µM | > 25 µM | > 25 µM | > 25 µM | > 25 µM | > 25 µM | > 25 µM | > 25 µM | > 25 µM | > 25 µM | > 25 µM | > 25 µM | > 25 µM | > 25 µM
Cc1cc(C#Cc2ccccc2)ccc1-n1c(/C=C/c2cc(O)ccc2O)nc2ccccc2c1=O | 1.14 µM | 3.97 µM | 0.37 µM | 2.63 µM | 1.62 µM | 3.18 µM | 1.37 µM | 2.65 µM | 1.49 µM | 2.81 µM | 1.83 µM | 4.61 µM | 1.54 µM | 2.91 µM | 2.03 µM | 5.61 µM | 2.19 µM | 8.34 µM | 1.36 µM | 2.64 µM
OCc1ccc(N(Cc2ccc(F)cc2)CC2CCC2)cc1Cl | 13.7 µM | 33.4 µM | 0.092 µM | 0.34 µM | 14 µM | 27.3 µM | 14.7 µM | 29.2 µM | 5.28 µM | 17.5 µM | 14.8 µM | 27.9 µM | 15.2 µM | 31.2 µM | 0.705 µM | 3.65 µM | 11.8 µM | 24.8 µM | 11.5 µM | 25.2 µM
O=C1/C(=C/c2ccccc2[N+](=O)[O-])COc2ccc(O)c(O)c21 | 0.431 µM | > 21.8 µM | 2.11 µM | 5.07 µM | 2.45 µM | 9.53 µM | 0.307 µM | 1.3 µM | 0.295 µM | 0.976 µM | 3.91 µM | 14.3 µM | 0.797 µM | 2.89 µM | 1.22 µM | 3.32 µM | 0.814 µM | 4.89 µM | 1.56 µM | 3.16 µM
N#Cc1ccc(/C=C/C(=O)c2ccccc2)cc1 | 9.4 µM and 6.4 µM | 53.3 µM and > 38.9 µM | 14.3 µM and 12.3 µM | 29.5 µM and 24.9 µM | 14.4 µM and 12.5 µM | 27.4 µM and 25.1 µM | 2.41 µM and 3.3 µM | 6.12 µM and 9.23 µM | 13.8 µM and 5.71 µM | 26.6 µM and 13 µM | 17.3 µM and 20.2 µM | 33.2 µM and 44.9 µM | 11.3 µM and 13.4 µM | > 50.5 µM and 27.8 µM | 14.2 µM and 12.1 µM | 28.2 µM and 26 µM | 13 µM and 10.7 µM | 31.4 µM and 26.6 µM | 5.82 µM and 5.13 µM | 10.7 µM and 10.3 µM
CCc1ccc([O-])c(C=NCCCN(C)CCCN=Cc2cc(C)ccc2[O-])c1.[Co+3].[N-]=[N+]=[N-] | > 150 µg/mL | > 150 µg/mL | 50 µg/mL and 79.7 µg/mL | 50 µg/mL and 127 µg/mL | 40.6 µg/mL and 61.6 µg/mL | 50 µg/mL and 123 µg/mL | 41.3 µg/mL | > 150 µg/mL | 50 µg/mL and 71.1 µg/mL | 50 µg/mL and > 150 µg/mL | 12.9 µg/mL and 37.3 µg/mL | 50 µg/mL and 85.9 µg/mL | 50 µg/mL | 50 µg/mL | 29 µg/mL | 50 µg/mL | 29.5 µg/mL | 50 µg/mL | 50 µg/mL and 123 µg/mL | 50 µg/mL and > 150 µg/mL
